# Data reported in patent US5034510A, “Antibacterial substance” (Shin-Etsu Chemical Co., Ltd., priority 1986, dated 1991).
# Where no end group is shown, it is not given here.
# Key:
# Assay in all cases: MIC by broth dilution method
# Assay type in all cases: cell-based
# Pseudomonas aeruginosa = conditions: P. aeru
# Procedure: (§1) Using the substances finally obtained in the above-described Experiments 35 to 42 and having no blocking group, MIC (minimum growth inhibitory concentration) against various bacteria was examined according to the broth dilution method, and the antibacterial activities were evaluated.
# (§2) H--(1-23)--NH(CH2)7 CH3 was synthesized according to the same procedures as described in Experiments 1 to 35, and the antibacterial activities thereof against various bacteria were examined in the same manner as in Example 1.
# [1] = test system: Pseudomonas aeruguinosa OT 97; conditions: P. aeru OT 97
# Procedure: as §1, §2
# [2] = test system: Bacillus subtilis PCI 219; conditions: B. sub 219
# Procedure: as §1, §2
# [3] = test system: Streptococcus hemolyticus; conditions: S. hemo
# Procedure: as §1, §2
# [4] = test system: Staphylococcus aureus FDA 209P; conditions: S. aure 209-P
# Procedure: as §1, §2
# Proteus mirabilis 129 = conditions: P. mira 129
# Procedure: as §1, §2
# Escherichia coli D 21 = test system: Escherichia coli D 21
# Procedure: as §1, §2
# [5] = test system: Enterobacter aerogenes IFO 13545; conditions: E. aero 13534
# Procedure: as §1, §2
# [6] = test system: Pseudomonas aeruginosa 99; conditions: P. aeru 99
# Procedure: as §1, §2
# Escherichia coli NIHJ = conditions: E. coli NIHJ
# Procedure: as §1, §2
# E. coli JC-2 = test system: E. coli JC-2
# Procedure: as §1, §2
# Micrococcus luteus ML II = conditions: M. lute ML II
# Procedure: as §1, §2
# Proteus mirabilis 1287 = conditions: P. mira 1287
# Procedure: as §1, §2
# [7] = test system: Salmonella enteritidis IFO 3313; conditions: S. ent 3313
# Procedure: as §1, §2
substance,measurement,setting,value
"RWKIFKKIEKMGRNIRDGIVKAGPAIEVLGSAKAI-NH2 [Synthetic lepidopteran A, lepidopteran A, reference compound]",MIC,Pseudomonas aeruginosa; Table 1,8 µg/mL
same,MIC,Pseudomonas aeruginosa; Table 2,8 µg/mL
same,MIC,[1]; Table 1,8 µg/mL
same,MIC,[1]; Table 2,8 µg/mL
same,MIC,[2]; Table 1,32 µg/mL
same,MIC,[2]; Table 2,32 µg/mL
same,MIC,[3]; Table 1,"-- (Symbol ""--"" is meant to be MIC > 250 mcg/ml)"
same,MIC,[3]; Table 2,"-- (Symbol ""--"" is meant to be MIC > 250 mcg/ml)"
same,MIC,[4]; Table 1,8 µg/mL
same,MIC,[4]; Table 2,125 µg/mL
same,MIC,Proteus mirabilis 129; Table 1,32 µg/mL
same,MIC,Proteus mirabilis 129; Table 2,32 µg/mL
same,MIC,"Escherichia coli D 21; E. coli D 21, Table 1",2 µg/mL
same,MIC,"Escherichia coli D 21; E. coli D, Table 2",2 µg/mL
same,MIC,[5]; Table 1,8 µg/mL
same,MIC,[5]; Table 2,8 µg/mL
same,MIC,[6]; Table 1,8 µg/mL
same,MIC,[6]; Table 2,8 µg/mL
same,MIC,Escherichia coli NIHJ; Table 1,4 µg/mL
same,MIC,Escherichia coli NIHJ; Table 2,4 µg/mL
same,MIC,E. coli JC-2; Table 1,4 µg/mL
same,MIC,E. coli JC-2; Table 2,4 µg/mL
same,MIC,Micrococcus luteus ML II; Table 1,2 µg/mL
same,MIC,Micrococcus luteus ML II; Table 2,2 µg/mL
same,MIC,Proteus mirabilis 1287; Table 1,32 µg/mL
same,MIC,Proteus mirabilis 1287; Table 2,32 µg/mL
same,MIC,[7]; Table 1,4 µg/mL
same,MIC,[7]; Table 2,4 µg/mL
